Patent US20250228239A1, “MOLECULES HAVING PESTICIDAL UTILITY, AND INTERMEDIATES, COMPOSITIONS, AND PROCESSES, RELATED THERETO” (priority 2024, published 2025)

Assays:
Assay type in all cases: in vivo
[1] = tested on: Cabbage Looper (Trichoplusia ni, TRIPNI); test: Bioassays on Cabbage Looper (CL), 128-well diet tray assay; conditions: Trichoplusia ni; Cabbage Looper; rating class; read-out: CL
Procedure, shortened: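 Each of eight wells receives artificial diet treated at 50 μg/cm^2 with the test molecule, then one to five second-instar larvae. Incubation runs five to seven days at 25° C with a 14:10 light-dark cycle under vented covers. Mortality is scored per well as a percentage and averaged.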

[2] = tested on: Yellow Fever Mosquito (Aedes aegypti, AEDSAE); conditions: Yellow Fever Mosquito; rating class
Procedure, shortened: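 Compounds from 4000 ppm DMSO stocks were diluted in 90:10 water/acetone and dispensed into wells, then infested with about 1-day-old larvae in liver-powder water. Covered plates were held at room temperature for 3 days and each well was scored for mortality against a rating scale; six replicate plates per compound.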

[3] = tested on: Beet Armyworm (Spodoptera exigua, LAPHEG); test: Bioassays on Beet Armyworm (BAW), 128-well diet tray assay; conditions: Spodoptera exigua; Beet Armyworm; rating class; read-out: BAW
Procedure, shortened: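 Larvae at second instar are exposed on dried, compound-treated diet (50 μg/cm^2, delivered in 90:10 acetone-water) in eight replicate wells. After five to seven days at 25° C., 14:10 light-dark, percent mortality in each well is scored and the eight wells averaged.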

| Compound | pest or weed control at 50 µg/cm2 [1] | YFM [2] | pest or weed control at 50 µg/cm2 [3] |
| --- | --- | --- | --- |
| CC(=O)Nc1ccc(F)c(NC(=O)c2cc(NC(=O)[C@H]3[C@H](c4cc(Cl)c(Cl)c(Cl)c4)C3(Cl)Cl)ccc2F)c1F [F1556, N-(3-Acetamido-2,6-difluorophenyl)-5-((1R,3R)-2,2-dichloro-3-(3,4,5-trichlorophenyl)cyclopropane-1-carboxamido)-2-fluorobenzamide] | 50 to 100% | A (80–100) | 50 to 100% |
| O=C(Nc1cc(NC(=O)C(F)(F)F)c(F)cc1F)c1cc(NC(=O)[C@H]2[C@H](c3ccc(F)c(C(F)(F)F)c3)C2(Cl)Cl)ccc1F [F1557, 5-((1R,3R)-2,2-Dichloro-3-(4-fluoro-3-(trifluoromethyl)phenyl)cyclopropane-1-carboxamido)-N-(2,4-difluoro-5-(2,2,2-trifluoroacetamido)phenyl)-2-fluorobenzamide] | 50 to 100% | A (80–100) | 50 to 100% |
| O=C(Nc1cc(NC(=O)C(F)F)c(F)cc1F)c1cc(NC(=O)[C@H]2[C@H](c3ccc(F)c(C(F)(F)F)c3)C2(Cl)Cl)ccc1F [F1558, 5-((1R,3R)-2,2-Dichloro-3-(4-fluoro-3-(trifluoromethyl)phenyl)cyclopropane-1-carboxamido)-N-(5-(2,2-difluoroacetamido)-2,4-difluorophenyl)-2-fluorobenzamide] | 50 to 100% | A (80–100) | 50 to 100% |
| CC(=O)Nc1cc(NC(=O)c2cc(NC(=O)[C@H]3[C@H](c4ccc(F)c(C(F)(F)F)c4)C3(Cl)Cl)ccc2F)c(F)cc1F [F1559, N-(5-Acetamido-2,4-difluorophenyl)-5-((1R,3R)-2,2-dichloro-3-(4-fluoro-3-(trifluoromethyl)phenyl)cyclopropane-1-carboxamido)-2-fluorobenzamide] | 50 to 100% | A (80–100) | 50 to 100% |
| O=C(Nc1c(F)ccc(NC(=O)C(F)(F)F)c1F)c1cc(NC(=O)[C@H]2[C@H](c3ccc(F)c(C(F)(F)F)c3)C2(Cl)Cl)ccc1F [F1560, 5-((1R,3R)-2,2-Dichloro-3-(4-fluoro-3-(trifluoromethyl)phenyl)cyclopropane-1-carboxamido)-N-(2,6-difluoro-3-(2,2,2-trifluoroacetamido)phenyl)-2-fluorobenzamide] | 50 to 100% | A (80–100) | 50 to 100% |
| O=C(Nc1c(F)ccc(NC(=O)C(F)F)c1F)c1cc(NC(=O)[C@H]2[C@H](c3ccc(F)c(C(F)(F)F)c3)C2(Cl)Cl)ccc1F [F1561, 5-((1R,3R)-2,2-Dichloro-3-(4-fluoro-3-(trifluoromethyl)phenyl)cyclopropane-1-carboxamido)-N-(3-(2,2-difluoroacetamido)-2,6-difluorophenyl)-2-fluorobenzamide] | 50 to 100% | A (80–100) | 50 to 100% |
| CC(=O)Nc1ccc(F)c(NC(=O)c2cc(NC(=O)[C@H]3[C@H](c4ccc(F)c(C(F)(F)F)c4)C3(Cl)Cl)ccc2F)c1F [F1562, N-(3-Acetamido-2,6-difluorophenyl)-5-((1R,3R)-2,2-dichloro-3-(4-fluoro-3-(trifluoromethyl)phenyl)cyclopropane-1-carboxamido)-2-fluorobenzamide] | 50 to 100% | A (80–100) | 50 to 100% |
| CCOC(C)(C)C(=O)Nc1c(F)ccc(NC(=O)c2cc(NC(=O)[C@H]3[C@H](c4ccc(F)c(C(F)(F)F)c4)C3(Cl)Cl)ccc2Cl)c1F [F1603, 2-Chloro-5-((1R,3R)-2,2-dichloro-3-(4-fluoro-3-(trifluoromethyl)phenyl)cyclopropane-1-carboxamido)-N-(3-(2-ethoxy-2-methylpropanamido)-2,4-difluorophenyl)benzamide] | 50 to 100% | A (80–100) | 50 to 100% |
| CCOC(C)C(=O)Nc1c(F)ccc(NC(=O)c2cc(NC(=O)[C@H]3[C@H](c4ccc(Cl)c(Cl)c4)C3(Cl)Cl)ccc2Cl)c1F (stereo partly drawn) [F1604, 2-Chloro-5-((1R,3R)-2,2-dichloro-3-(3,4-dichlorophenyl)cyclopropane-1-carboxamido)-N-(3-(2-ethoxypropanamido)-2,4-difluorophenyl)benzamide] | 50 to 100% | A (80–100) | 50 to 100% |
| CCOC(C)(C)C(=O)Nc1c(F)ccc(NC(=O)c2cc(NC(=O)[C@H]3[C@H](c4ccc(Cl)c(Cl)c4)C3(Cl)Cl)ccc2Cl)c1F [F1605, 2-Chloro-5-((1R,3R)-2,2-dichloro-3-(3,4-dichlorophenyl)cyclopropane-1-carboxamido)-N-(3-(2-ethoxy-2-methylpropanamido)-2,4-difluorophenyl)benzamide] | 50 to 100% | A (80–100) | 50 to 100% |
| CC(C)C(=O)Nc1c(F)ccc(NC(=O)c2cc(NC(=O)[C@H]3[C@H](c4ccc(Cl)c(Cl)c4)C3(Cl)Cl)ccc2Cl)c1F [F1606, 2-Chloro-5-((1R,3R)-2,2-dichloro-3-(3,4-dichlorophenyl)cyclopropane-1-carboxamido)-N-(2,4-difluoro-3-isobutyramidophenyl)benzamide] | 50 to 100% | A (80–100) | 50 to 100% |
| O=C(Nc1ccc(F)c(NC(=O)C(C(F)(F)F)C(F)(F)F)c1F)c1cc(NC(=O)[C@H]2[C@H](c3ccc(Cl)c(Cl)c3)C2(Cl)Cl)ccc1Cl [F1607, 2-Chloro-5-((1R,3R)-2,2-dichloro-3-(3,4-dichlorophenyl)cyclopropane-1-carboxamido)-N-(2,4-difluoro-3-(3,3,3-trifluoro-2-(trifluoromethyl)propanamido)phenyl)benzamide] | 50 to 100% | A (80–100) | 50 to 100% |
| O=C(Nc1ccc(F)c(NC(=O)C2CC2(F)F)c1F)c1cc(NC(=O)[C@H]2[C@H](c3ccc(Cl)c(Cl)c3)C2(Cl)Cl)ccc1Cl (stereo partly drawn) [F1608, 2-Chloro-5-((1R,3R)-2,2-dichloro-3-(3,4-dichlorophenyl)cyclopropane-1-carboxamido)-N-(3-(2,2-difluorocyclopropane-1-carboxamido)-2,4-difluorophenyl)benzamide] | 50 to 100% | A (80–100) | 50 to 100% |
| O=C(Nc1ccc(F)c(NC(=O)C2CCOC2)c1F)c1cc(NC(=O)[C@H]2[C@H](c3ccc(Cl)c(Cl)c3)C2(Cl)Cl)ccc1Cl (stereo partly drawn) [F1610, N-(3-(2-Chloro-5-((1R,3R)-2,2-dichloro-3-(3,4-dichlorophenyl)cyclopropane-1-carboxamido)benzamido)-2,6-difluorophenyl)tetrahydrofuran-3-carboxamide] | 50 to 100% | A (80–100) | 50 to 100% |
| CN(C(=O)C(F)(F)F)c1c(F)ccc(NC(=O)c2cc(NC(=O)[C@H]3[C@H](c4ccc(Cl)c(Cl)c4)C3(Cl)Cl)ccc2Cl)c1F [F1614, 2-Chloro-5-((1R,3R)-2,2-dichloro-3-(3,4-dichlorophenyl)cyclopropane-1-carboxamido)-N-(2,4-difluoro-3-(2,2,2-trifluoro-N-methylacetamido)phenyl)benzamide] | 50 to 100% | A (80–100) | 50 to 100% |
| CCC1CCC(C(=O)Nc2c(F)ccc(NC(=O)c3cc(NC(=O)[C@H]4[C@H](c5ccc(F)c(C(F)(F)F)c5)C4(Cl)Cl)ccc3Cl)c2F)O1 (stereo partly drawn) [F1626, N-(3-(2-Chloro-5-((1R,3R)-2,2-dichloro-3-(4-fluoro-3-(trifluoromethyl)phenyl)cyclopropane-1-carboxamido)benzamido)-2,6-difluorophenyl)-5-ethyltetrahydrofuran-2-carboxamide] | 50 to 100% | A (80–100) | 50 to 100% |
| CC(=O)Nc1c(F)cc(F)c(NC(=O)c2cc(NC(=O)[C@H]3[C@H](c4cc(Cl)cc(Cl)c4)C3(Cl)Cl)ccc2Cl)c1F [F1628, N-(3-Acetamido-2,4,6-trifluorophenyl)-2-chloro-5-((1R,3R)-2,2-dichloro-3-(3,5-dichlorophenyl)cyclopropane-1-carboxamido)benzamide] | 50 to 100% | A (80–100) | 50 to 100% |
| CC(=O)Nc1c(F)cc(F)c(NC(=O)c2cc(NC(=O)[C@H]3[C@H](c4ccc(Cl)c(Cl)c4)C3(Cl)Cl)ccc2Cl)c1F [F1629, N-(3-Acetamido-2,4,6-trifluorophenyl)-2-chloro-5-((1R,3R)-2,2-dichloro-3-(3,4-dichlorophenyl)cyclopropane-1-carboxamido)benzamide] | 50 to 100% | B (More than 0 – Less than 80) | 50 to 100% |
| COCC(=O)N(C)c1c(F)ccc(NC(=O)c2cc(NC(=O)[C@H]3[C@H](c4ccc(Cl)c(Cl)c4)C3(Cl)Cl)ccc2Cl)c1F [F1630, 2-Chloro-5-((1R,3R)-2,2-dichloro-3-(3,4-dichlorophenyl)cyclopropane-1-carboxamido)-N-(2,4-difluoro-3-(2-methoxy-N-methylacetamido)phenyl)benzamide] | 50 to 100% | A (80–100) | 50 to 100% |
